Measurements published in patent US11319324B2, “Pyrazolo-pyrrolo-pyrimidine-dione derivatives as P2X3 inhibitors” (Bayer Aktiengesellschaft, priority 2017, dated 2022).

Key:
Type in all cases: cell-based
[1] = target: T1, human P2X2/3 receptors (Homo sapiens, UniProt P56373+Q9UBL9); experiment: Intracellular calcium measurement, antagonist activity at human P2X2/3 receptors (hP2X23 1321N1), Fluo8; conditions: for IC50: column 4); 1321N1 cells, human P2X2/3, Fluo8, agonist ATP at EC50; read-out: 4) hP2X2/3 IC50 [nM] (1321N1); for hP2X23/hP2X3* Selectivity (1321N1): ratio of column 4) hP2X2/3 to column 3) hP2X3, 1321N1
T1 construct: expressed in transfected cells; host or cells: human astrocytoma 1321N1 (1312N1 [sic])
T1 sequence (P56373 1-397): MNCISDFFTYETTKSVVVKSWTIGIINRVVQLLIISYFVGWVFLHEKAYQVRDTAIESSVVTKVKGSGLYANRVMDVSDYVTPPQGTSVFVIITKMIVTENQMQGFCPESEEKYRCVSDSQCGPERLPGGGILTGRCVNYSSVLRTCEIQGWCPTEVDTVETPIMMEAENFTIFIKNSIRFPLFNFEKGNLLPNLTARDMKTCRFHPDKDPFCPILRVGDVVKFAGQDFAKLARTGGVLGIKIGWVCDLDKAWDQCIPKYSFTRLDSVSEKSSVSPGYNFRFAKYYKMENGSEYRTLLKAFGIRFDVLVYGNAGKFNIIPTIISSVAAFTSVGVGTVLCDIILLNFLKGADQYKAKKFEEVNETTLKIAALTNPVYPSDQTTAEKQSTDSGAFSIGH
T1 sequence (Q9UBL9 1-471): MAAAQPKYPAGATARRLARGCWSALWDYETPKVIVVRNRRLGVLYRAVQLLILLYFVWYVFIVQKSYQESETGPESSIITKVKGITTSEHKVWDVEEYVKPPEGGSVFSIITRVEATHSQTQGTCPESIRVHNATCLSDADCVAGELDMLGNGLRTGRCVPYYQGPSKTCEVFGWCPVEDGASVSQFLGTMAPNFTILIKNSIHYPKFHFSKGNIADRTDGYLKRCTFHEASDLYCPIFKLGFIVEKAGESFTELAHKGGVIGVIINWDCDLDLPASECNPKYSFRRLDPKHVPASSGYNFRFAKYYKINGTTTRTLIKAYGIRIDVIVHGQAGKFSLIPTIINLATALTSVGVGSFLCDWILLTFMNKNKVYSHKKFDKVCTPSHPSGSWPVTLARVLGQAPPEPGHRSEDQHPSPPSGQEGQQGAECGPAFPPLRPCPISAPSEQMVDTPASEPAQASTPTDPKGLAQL
Summary of the method: (§1)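 Inhibition of ATP-triggered Ca2+ transients is measured in 1321N1 cells expressing P2X3 homotrimers or P2X2/3 heterotrimers.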

[2] = target: T2, human P2X3 receptor (Homo sapiens, UniProt P56373); experiment: Intracellular calcium measurement to assess antagonist activity at human P2X3 receptors (hP2X3 CHO), photina luminescence; parameters: expressed in transfected cells; host or cells: Chinese hamster ovary (CHO) cells; conditions: column 2), CHO cells, agonist α,β-methylene-ATP at EC50
T2 sequence (P56373 1-397): T1 sequence (P56373 1-397)
Summary of the method: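 CHO cells stably expressing human P2X3 and mitochondrial photina, plated the day before at 30 °C, then loaded 3 h at 37 °C in 2 mM Ca-tyrode buffer with 5 μg/ml coelenterazine. Agonist-evoked calcium luminescence read immediately; inhibition seen as signal decrease.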

[3] = target: T2, human P2X3 receptor; experiment: Intracellular calcium measurement, antagonist activity at human P2X3 receptors (hP2X3 1321N1), Fluo8; parameters: expressed in transfected cells; host or cells: human astrocytoma 1321N1 (1312N1 [sic]); conditions: column 3); 1321N1 cells, human P2X3, Fluo8, agonist ATP at EC50
Summary of the method: as §1

IC50 [1] [nM]	hP2X23/hP2X3* Selectivity (1321N1) [1]	IC50 [2] [nM]	IC50 [3] [nM]	Structure (SMILES)
7300	66	150	110	CCc1cc2n(CC(=O)Nc3ccc(F)cn3)c3c(c(=O)n2n1)CN(C1CCNC1)C3=O (single isomer, unassigned) [Example 277, 2-{2-ethyl-5,8-dioxo-6-[pyrrolidin-3-yl]-5,6,7,8-tetrahydro-4H-pyrazolo[1,5-a]pyrrolo[3,4-d]-pyrimidin-4-yl}-N-(5-fluoropyridin-2-yl)acetamide]
> 32000	>68	533	470	CCc1cc2n(CC(=O)Nc3ccc(F)cn3)c3c(c(=O)n2n1)CN(C1CCN(C(C)=O)C1)C3=O (stereo not drawn) [Example 265]
8000	25	557	325	CCc1cc2n(CC(=O)Nc3ccc(F)cn3)c3c(c(=O)n2n1)CN(C[C@H]1CN(C(C)=O)CCO1)C3=O [Example 267]
6600	197	20	34	CC(C)N1Cc2c(n(CC(=O)Nc3ccc(F)cn3)c3cc(C4=CCN(C(=O)OC(C)(C)C)CC4)nn3c2=O)C1=O [Example 143, tert-butyl 4-[4-{2-[(5-fluoropyridin-2-yl)amino]-2-oxoethyl}-5,8-dioxo-6-(propan-2-yl)-5,6,7,8-tetrahydro-4H-pyrazolo[1,5-a]pyrrolo[3,4-d]pyrimidin-2-yl]-3,6-dihydropyridine-1(2H)-carboxylate]
3200	368	18	9	COC[C@H](C)N1Cc2c(n(CC(=O)Nc3ccc(F)cn3)c3cc(C(=O)N4CCC4)nn3c2=O)C1=O [Example 194]
5050	192	64	26	O=C(Cn1c2c(c(=O)n3nc(C4CCOCC4)cc13)CN(C1CCCC1)C2=O)Nc1ccc(F)cn1 [Example 92]
8800	345	20	26	CC(C)N1Cc2c(n(CC(=O)Nc3ccc(F)cn3)c3cc(CC4CCOCC4)nn3c2=O)C1=O [Example 96]
> 32000	>25	615	1280	CCc1cc2n(CC(=O)Nc3ccc(F)cn3)c3c(c(=O)n2n1)CN(C1CCNC1)C3=O.Cl (racemic) [Example 236, 2-{2-ethyl-5,8-dioxo-6-[(±)-pyrrolidin-3-yl]-5,6,7,8-tetrahydro-4H-pyrazolo[1,5-a]pyrrolo[3,4-d]pyrimidin-4-yl}-N-(5-fluoropyridin-2-yl)acetamide hydrochloride (1:1)]
> 32000	>152	173	210	CC(O)c1cc2n(CC(=O)Nc3ccc(F)cn3)c3c(c(=O)n2n1)CN(C(C)C)C3=O (racemic) [Example 275, N-(5-fluoropyridin-2-yl)-2-{2-[(±)-1-hydroxyethyl]-5,8-dioxo-6-(propan-2-yl)-5,6,7,8-tetrahydro-4H-pyrazolo[1,5-a]pyrrolo[3,4-d]pyrimidin-4-yl}acetamide]
> 32000	>49	220	650	CCc1cc2n(CC(=O)Nc3ccc(F)cn3)c3c(c(=O)n2n1)CN(CC1CCCN1)C3=O.Cl (stereo not drawn) [Example 239]
> 66000	>194	155	340	CC(C)N1Cc2c(n(CC(=O)Nc3ccc(F)cn3)c3cc(C4CCNC4)nn3c2=O)C1=O.Cl (racemic) [Example 235, 2-{5,8-dioxo-6-(propan-2-yl)-2-[(±)-pyrrolidin-3-yl]-5,6,7,8-tetrahydro-4H-pyrazolo[1,5-a]pyrrolo[3,4-d]pyrimidin-4-yl}-N-(5-fluoropyridin-2-yl)acetamide hydrochloride (1:1)]
9750	207	66	47	COCCN1Cc2c(n(CC(=O)Nc3ccc(F)cn3)c3cc(C4CCOCC4)nn3c2=O)C1=O [Example 97]
9300	581	35	16	COC[C@H](C)N1Cc2c(n(CC(=O)Nc3ccc(F)cn3)c3cc(C(=O)N4CCCCC4)nn3c2=O)C1=O [Example 198]
580	106	6	5	COC[C@H](C)N1Cc2c(n(CC(=O)Nc3ccc(F)cn3)c3cc(-c4ccc(C)nc4)nn3c2=O)C1=O [Example 151, N-(5-fluoropyridin-2-yl)-2-{6-[(2S)-1-methoxypropan-2-yl]-2-(6-methylpyridin-3-yl)-5,8-dioxo-5,6,7,8-tetrahydro-4H-pyrazolo[1,5-a]pyrrolo[3,4-d]pyrimidin-4-yl}acetamide]
> 23000	>184	111	125	CCc1cc2n(CC(=O)Nc3ccc(F)cn3)c3c(c(=O)n2n1)CN(C1CCOC1)C3=O (racemic) [Example 71, 2-{2-ethyl-5,8-dioxo-6-[(±)-tetrahydrofuran-3-yl]-5,6,7,8-tetrahydro-4H-pyrazolo[1,5-a]pyrrolo[3,4-d]pyrimidin-4-yl}-N-(5-fluoropyridin-2-yl)acetamide]
9500	91	122	104	CCc1cc2n(CC(=O)Nc3ccc(F)cn3)c3c(c(=O)n2n1)CN(C[C@H]1CCCO1)C3=O [Example 73, 2-{2-ethyl-5,8-dioxo-6-[(2R)-tetrahydrofuran-2-ylmethyl]-5,6,7,8-tetrahydro-4H-pyrazolo[1,5-a]pyrrolo[3,4-d]pyrimidin-4-yl}-N-(5-fluoropyridin-2-yl)acetamide]
> 32000	>1185	39	27	CC(C)N1Cc2c(n(CC(=O)Nc3ccc(F)cn3)c3cc(C4CCS(=O)(=O)CC4)nn3c2=O)C1=O [Example 229, 2-[2-(1,1-dioxo-1lambda^6-thian-4-yl)-5,8-dioxo-6-(propan-2-yl)-5,6,7,8-tetrahydro-4H-pyrazolo[1,5-a]pyrrolo[3,4-d]pyrimidin-4-yl]-N-(5-fluoropyridin-2-yl)acetamide]
> 20500	>569	81	36	CC(C)N1Cc2c(n(CC(=O)Nc3ccc(F)cn3)c3cc(C4CCN(S(=O)(=O)CC(F)(F)F)C4)nn3c2=O)C1=O (stereo not drawn) [Example 271]
> 20700	>173	108	120	COCCNc1cc2n(CC(=O)Nc3ccc(F)cn3)c3c(c(=O)n2n1)CN(C(C)C)C3=O [Example 169]
2600	211	8	12	COCCN1Cc2c(n(CC(=O)Nc3ccc(F)cn3)c3cc(CC(C)C)nn3c2=O)C1=O [Example 98]
3350	84	22	40	CC(C)N1Cc2c(n(CC(=O)Nc3ccc(F)cn3)c3cc(C(=O)NC4CCCC4)nn3c2=O)C1=O [Example 185]
